The record followed here is ChEMBL document CHEMBL6103552, “Identification of peptide-based hepatitis B virus capsid inhibitors based on the viral core protein” (Bioorg Med Chem Lett, 2025).

SMILES strings stand for the structures. The source made the active and inactive calls. How the calls were made is not given here. Residues, ends and D or L forms follow the SMILES beside them.

The target of the assay is Core antigen (Hepatitis B virus) (UniProt Q03732). Nature of the assay: Inhibition of Hepatitis B virus capsid formation at 100 uM treated during cell-free wild type HBV Cp synthesis using wheat germ lysates and HBV Cp RNA by Native capsid assay based western blot analysis. The format is subcellular. A general note: In western blotting, separated proteins are transferred to a membrane and probed.
Chain of Core antigen (Hepatitis B virus) (Q03732 as listed by the source): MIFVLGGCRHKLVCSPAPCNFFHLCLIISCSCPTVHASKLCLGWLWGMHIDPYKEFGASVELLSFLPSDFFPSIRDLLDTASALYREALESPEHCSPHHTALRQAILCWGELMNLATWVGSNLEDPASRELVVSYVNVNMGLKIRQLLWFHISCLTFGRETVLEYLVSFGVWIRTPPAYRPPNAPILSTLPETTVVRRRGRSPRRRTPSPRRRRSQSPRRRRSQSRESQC
On to `CSCC[C@H](NC(=O)[C@H](CC(N)=O)NC(=O)[C@@H](NC(=O)[C@H](CC(N)=O)NC(=O)[C@@H](NC(=O)[C@H](Cc1ccc(O)cc1)NC(=O)[C@H](CO)NC(=O)[C@@H](NC(C)=O)C(C)C)C(C)C)C(C)C)C(=O)NCC(=O)N[C@@H](CC(C)C)C(=O)N[C@@H](CCCCN)C(=O)N[C@@H](Cc1ccccc1)C(=O)N[C@@H](CCCNC(=N)N)C(=O)N[C@@H](CCC(N)=O)C(=O)N[C@@H](CC(C)C)C(N)=O` (Ac-VSYVNVNMGLKFRQL-NH2), for which the inhibition result is “inactive”.

As to `CC(C)C[C@H](NC(=O)[C@H](C)NC(=O)[C@@H](NC(=O)[C@H](Cc1c[nH]cn1)NC(=O)[C@H](Cc1c[nH]cn1)NC(=O)[C@@H]1CCCN1C(=O)[C@H](CO)NC(=O)[C@H](CS)NC(=O)[C@H](Cc1c[nH]cn1)NC(=O)[C@H](CCC(=O)O)NC(=O)[C@@H]1CCCN1C(=O)[C@H](CO)NC(=O)[C@H](CCC(=O)O)NC(=O)[C@H](CC(C)C)NC(=O)[C@H](C)N)[C@@H](C)O)C(N)=O` (H-ALESPEHCSPHHTAL-NH2), the inhibition entry was “inactive”.

In the case of `CC(C)C[C@H](NC(=O)[C@H](C)N)C(=O)N[C@@H](Cc1ccc(O)cc1)C(=O)N[C@@H](CCCNC(=N)N)C(=O)N[C@@H](CCC(=O)O)C(=O)N[C@@H](C)C(=O)N[C@@H](CC(C)C)C(=O)N[C@@H](CCC(=O)O)C(=O)N[C@@H](CO)C(=O)N1CCC[C@H]1C(=O)N[C@@H](CCC(=O)O)C(=O)N[C@@H](Cc1c[nH]cn1)C(=O)N[C@@H](CS)C(=O)N[C@@H](CO)C(=O)N1CCC[C@H]1C(N)=O` (H-ALYREALESPEHCSP-NH2), the inhibition result is “inactive”. Turning to `CC[C@H](C)[C@H](NC(=O)[C@@H]1CCCN1C(=O)[C@H](C)NC(=O)[C@H](CC(N)=O)NC(=O)[C@@H]1CCCN1C(=O)[C@@H]1CCCN1C(=O)[C@H](CCCNC(=N)N)NC(=O)[C@H](Cc1ccc(O)cc1)NC(=O)[C@H](C)N)C(=O)N[C@@H](CC(C)C)C(=O)N[C@@H](CO)C(=O)N[C@H](C(=O)N[C@@H](CC(C)C)C(=O)N1CCC[C@H]1C(=O)N[C@@H](CCC(=O)O)C(N)=O)[C@@H](C)O` (H-AYRPPNAPILSTLPE-NH2), the inhibition result is “inactive”. `CC[C@H](C)[C@H](NC(=O)[C@H](C)NC(=O)[C@H](CCC(N)=O)NC(=O)[C@@H]1CCCN1C(=O)[C@H](CC(C)C)NC(=O)[C@H](C)NC(=O)[C@@H](NC(=O)[C@H](Cc1c[nH]cn1)NC(=O)[C@H](Cc1c[nH]cn1)NC(=O)[C@@H]1CCCN1C(=O)[C@H](CO)NC(=O)[C@H](CS)NC(=O)[C@H](Cc1c[nH]cn1)NC(=O)[C@@H](N)CCC(=O)O)[C@@H](C)O)C(=O)N[C@@H](CC(C)C)C(N)=O` (H-EHCSPHHTALPQAIL-NH2): the inhibition entry is “inactive”. As for `CC(C)C[C@H](NC(=O)[C@H](Cc1ccc(O)cc1)NC(=O)[C@H](CCC(=O)O)NC(=O)[C@H](CC(C)C)NC(=O)[C@@H](NC(=O)[C@@H](NC(=O)[C@H](CCC(=O)O)NC(=O)[C@H](CCCNC(=N)N)NC(=O)CN)[C@@H](C)O)C(C)C)C(=O)N[C@H](C(=O)N[C@@H](CO)C(=O)N[C@@H](Cc1ccccc1)C(=O)NCC(=O)N[C@H](C(=O)N[C@@H](Cc1c[nH]c2ccccc12)C(N)=O)C(C)C)C(C)C` (H-GRETVLEYLVSFGVW-NH2), the inhibition result is “inactive”.

As for `CC[C@H](C)[C@H](NC(=O)[C@H](C)NC(=O)[C@H](CCC(N)=O)NC(=O)[C@@H]1CCCN1C(=O)[C@H](CC(C)C)NC(=O)[C@H](C)NC(=O)[C@@H](NC(=O)[C@H](Cc1c[nH]cn1)NC(=O)[C@@H](N)Cc1c[nH]cn1)[C@@H](C)O)C(=O)N[C@@H](CC(C)C)C(=O)N[C@@H](CS)C(=O)N[C@@H](Cc1c[nH]c2ccccc12)C(=O)NCC(=O)N[C@@H](CCC(=O)O)C(=O)N[C@@H](CC(C)C)C(N)=O` (H-HHTALPQAILCWGEL-NH2), the inhibition entry is “inactive”.

For `CC[C@H](C)[C@H](N)C(=O)N[C@@H](CCCNC(=N)N)C(=O)N[C@H](C(=O)N1CCC[C@H]1C(=O)N1CCC[C@H]1C(=O)N[C@@H](C)C(=O)N[C@@H](Cc1ccc(O)cc1)C(=O)N[C@@H](CCCNC(=N)N)C(=O)N1CCC[C@H]1C(=O)N1CCC[C@H]1C(=O)N[C@@H](CC(N)=O)C(=O)N[C@@H](C)C(=O)N1CCC[C@H]1C(=O)N[C@H](C(=O)N[C@@H](CC(C)C)C(N)=O)[C@@H](C)CC)[C@@H](C)O` (H-IRTPPAYRPPNAPIL-NH2), the inhibition result is “inactive”. Consider `CC[C@H](C)[C@H](NC(=O)[C@H](Cc1c[nH]cn1)NC(=O)[C@H](Cc1ccccc1)NC(=O)[C@H](Cc1c[nH]c2ccccc12)NC(=O)[C@H](CC(C)C)NC(=O)[C@H](CC(C)C)NC(=O)[C@H](CCC(N)=O)NC(=O)[C@H](CCCNC(=N)N)NC(=O)[C@H](Cc1ccccc1)NC(=O)[C@@H](N)CCCCN)C(=O)N[C@@H](CO)C(=O)N[C@@H](CS)C(=O)N[C@@H](CC(C)C)C(=O)N[C@H](C(=O)N[C@@H](Cc1ccccc1)C(N)=O)[C@@H](C)O` (H-KFRQLLWFHISCLTF-NH2), for which the inhibition result was “inactive”. On to `CC(C)C[C@H](NC(=O)[C@H](C)NC(=O)[C@H](CO)NC(=O)[C@H](C)NC(=O)[C@@H](NC(=O)[C@H](CC(=O)O)NC(=O)[C@@H](N)CC(C)C)[C@@H](C)O)C(=O)N[C@@H](Cc1ccc(O)cc1)C(=O)N[C@@H](CCCNC(=N)N)C(=O)N[C@@H](CCC(=O)O)C(=O)N[C@@H](C)C(=O)N[C@@H](CC(C)C)C(=O)N[C@@H](CCC(=O)O)C(=O)N[C@@H](CO)C(=O)N1CCC[C@H]1C(N)=O` (H-LDTASALYREALESP-NH2), for which the inhibition result was “inactive”. As to `CC[C@H](C)[C@H](NC(=O)[C@H](Cc1c[nH]c2ccccc12)NC(=O)[C@@H](NC(=O)CNC(=O)[C@H](Cc1ccccc1)NC(=O)[C@H](CO)NC(=O)[C@@H](NC(=O)[C@H](CC(C)C)NC(=O)[C@H](Cc1ccc(O)cc1)NC(=O)[C@H](CCC(=O)O)NC(=O)[C@@H](N)CC(C)C)C(C)C)C(C)C)C(=O)N[C@@H](CCCNC(=N)N)C(=O)N[C@H](C(=O)N1CCC[C@H]1C(=O)N1CCC[C@H]1C(N)=O)[C@@H](C)O` (H-LEYLVSFGVWIRTPP-NH2), the inhibition entry was “inactive”. With `CC[C@H](C)[C@H](NC(=O)[C@H](Cc1c[nH]cn1)NC(=O)[C@H](Cc1ccccc1)NC(=O)[C@H](Cc1c[nH]c2ccccc12)NC(=O)[C@@H](N)CC(C)C)C(=O)N[C@@H](CO)C(=O)N[C@@H](CS)C(=O)N[C@@H](CC(C)C)C(=O)N[C@H](C(=O)N[C@@H](Cc1ccccc1)C(=O)NCC(=O)N[C@@H](CCCNC(=N)N)C(=O)N[C@@H](CCC(=O)O)C(=O)N[C@H](C(=O)N[C@H](C(N)=O)C(C)C)[C@@H](C)O)[C@@H](C)O` (H-LWFHISCLTFGRETV-NH2) the entry was “inactive”; with `N=C(N)NCCC[C@H](NC(=O)[C@@H]1CCCN1)C(=O)N[C@@H](CCCNC(=N)N)C(=O)N[C@@H](CCCNC(=N)N)C(=O)N[C@@H](CCCNC(=N)N)C(=O)N[C@@H](CO)C(=O)N[C@@H](CCC(N)=O)C(=O)N[C@@H](CO)C(=O)N[C@@H](CCCNC(=N)N)C(=O)N[C@@H](CCC(=O)O)C(=O)N[C@@H](CO)C(=O)N[C@@H](CCC(N)=O)C(=O)N[C@@H](CS)C(N)=O` (H-PRRRRSQSRESQC-NH2), “inactive”. On to `C[C@@H](O)[C@H](NC(=O)[C@H](CCCNC(=N)N)NC(=O)[C@H](CCCNC(=N)N)NC(=O)[C@H](CCCNC(=N)N)NC(=O)[C@@H]1CCCN1)C(=O)N1CCC[C@H]1C(=O)N[C@@H](CO)C(=O)N1CCC[C@H]1C(=O)N[C@@H](CCCNC(=N)N)C(=O)N[C@@H](CCCNC(=N)N)C(=O)N[C@@H](CCCNC(=N)N)C(=O)N[C@@H](CCCNC(=N)N)C(=O)N[C@@H](CO)C(=O)N[C@@H](CCC(N)=O)C(=O)N[C@@H](CO)C(N)=O` (H-PRRRTPSPRRRRSQS-NH2), for which the inhibition entry was “inactive”. Regarding `N=C(N)NCCC[C@H](NC(=O)[C@H](CCCNC(=N)N)NC(=O)[C@H](CCCNC(=N)N)NC(=O)[C@H](CCCNC(=N)N)NC(=O)[C@@H]1CCCN1C(=O)[C@H](CO)NC(=O)[C@H](CCC(N)=O)NC(=O)[C@H](CO)NC(=O)[C@H](CCCNC(=N)N)NC(=O)[C@H](CCCNC(=N)N)NC(=O)[C@H](CCCNC(=N)N)NC(=O)[C@H](CCCNC(=N)N)NC(=O)[C@@H]1CCCN1C(=O)[C@H](CO)NC(=O)[C@@H]1CCCN1)C(N)=O` (H-PSPRRRRSQSPRRRR-NH2), the inhibition result was “inactive”. Consider `N=C(N)NCCC[C@H](NC(=O)[C@H](CO)NC(=O)[C@H](CCC(N)=O)NC(=O)[C@H](CO)NC(=O)[C@H](CCCNC(=N)N)NC(=O)[C@H](CCCNC(=N)N)NC(=O)[C@H](CCCNC(=N)N)NC(=O)[C@H](CCCNC(=N)N)NC(=O)[C@@H]1CCCN1C(=O)[C@H](CO)NC(=O)[C@@H](N)CCC(N)=O)C(=O)N[C@@H](CCC(=O)O)C(=O)N[C@@H](CO)C(=O)N[C@@H](CCC(N)=O)C(=O)N[C@@H](CS)C(N)=O` (H-QSPRRRRSQSRESQC-NH2), for which the inhibition entry was “inactive”.

Consider `C[C@@H](O)[C@H](NC(=O)[C@H](CCCNC(=N)N)NC(=O)[C@H](CCCNC(=N)N)NC(=O)[C@H](CCCNC(=N)N)NC(=O)[C@@H]1CCCN1C(=O)[C@H](CO)NC(=O)[C@H](CCCNC(=N)N)NC(=O)CNC(=O)[C@H](CCCNC(=N)N)NC(=O)[C@@H](N)CCCNC(=N)N)C(=O)N1CCC[C@H]1C(=O)N[C@@H](CO)C(=O)N1CCC[C@H]1C(=O)N[C@@H](CCCNC(=N)N)C(=O)N[C@@H](CCCNC(=N)N)C(N)=O` (H-RRGRSPRRRTPSPRR-NH2), for which the inhibition entry is “inactive”.

As to `N=C(N)NCCC[C@H](NC(=O)[C@H](CO)NC(=O)[C@H](CCC(N)=O)NC(=O)[C@H](CO)NC(=O)[C@H](CCCNC(=N)N)NC(=O)[C@H](CCCNC(=N)N)NC(=O)[C@H](CCCNC(=N)N)NC(=O)[C@H](CCCNC(=N)N)NC(=O)[C@@H]1CCCN1C(=O)[C@H](CO)NC(=O)[C@H](CCC(N)=O)NC(=O)[C@H](CO)NC(=O)[C@H](CCCNC(=N)N)NC(=O)[C@@H](N)CCCNC(=N)N)C(=O)N[C@@H](CCC(=O)O)C(N)=O` (H-RRSQSPRRRRSQSRE-NH2), the inhibition entry is “inactive”.

With `CC(C)C[C@H](NC(=O)[C@H](Cc1ccc(O)cc1)NC(=O)[C@H](CCC(=O)O)NC(=O)[C@H](CC(C)C)NC(=O)[C@@H](NC(=O)[C@@H](NC(=O)[C@H](CCC(=O)O)NC(=O)[C@H](CCCNC(=N)N)NC(=O)CNC(=O)[C@H](Cc1ccccc1)NC(=O)[C@@H](NC(=O)[C@H](CC(C)C)NC(=O)[C@H](CS)NC(=O)[C@@H](N)CO)[C@@H](C)O)[C@@H](C)O)C(C)C)C(=O)N[C@H](C(N)=O)C(C)C` (H-SCLTFGRETVLEYLV-NH2), the inhibition result is “inactive”.
